Reference: patent US20120295907A1, “INSECTICIDAL COMPOUNDS” (SYNGENTA CROP PROTECTION, LLC, priority 2009, published 2012)

How the values were obtained:
Type in all cases: in vivo
Spodoptera littoralis = Spodoptera littoralis (Egyptian Cotton Leafworm) cotton leaf disc spray test; conditions: foliar, 72 h, 200 ppm spray on cotton leaf discs, L1 larvae, mortality, feeding behavior, growth regulation 3 DAT
Diabrotica balteata = Diabrotica balteata (Corn Root Worm) artificial diet MTP test; conditions: 120 h, 200 ppm (concentration in well 18 ppm), L2 larvae, 5 days, larval mortality, growth regulation
Thrips tabaci = Thrips tabaci (Onion Thrips) sunflower leaf disc spray test; conditions: foliar, 168 h, 200 ppm spray on sunflower leaf discs, population of mixed ages, 7 days, mortality
Heliothis virescens = Heliothis virescens (Tobacco Budworm) egg test on artificial diet; conditions: 96 h, 200 ppm (concentration in well 18 ppm), eggs 0-24 h old on artificial diet, 4 days, egg mortality, larval mortality, growth regulation
Plutella xylostella = Plutella xylostella (Diamond Back Moth) artificial diet MTP test; conditions: 144 h, 200 ppm (concentration in well 18 ppm), L2 larvae, 6 days, larval mortality, growth regulation

Measured: pest or weed control at 200 ppm

CCc1cc(C(F)(C(F)(F)F)C(F)(F)C(F)(F)F)cc(C)c1NC(=O)c1cccc(NC(=O)c2cccc(Cl)c2)c1OC (centres unmarked) [A8]
≥ 80%: all assays above

CCc1cc(C(F)(C(F)(F)F)C(F)(F)C(F)(F)F)cc(C)c1NC(=O)c1cccc(NC(=O)c2ccccc2Cl)c1OC (centres unmarked) [A9]
≥ 80%: all assays above

CCc1cc(C(F)(C(F)(F)F)C(F)(F)C(F)(F)F)cc(C)c1NC(=O)c1cccc(NC(=O)c2ccccc2)c1OC (centres unmarked) [A19]
≥ 80%: all assays above

CCc1cc(C(F)(C(F)(F)F)C(F)(F)C(F)(F)F)cc(C)c1NC(=O)c1cccc(NC(=O)c2cccc(F)c2F)c1OC (centres unmarked) [A20]
≥ 80%: all assays above

COc1c(NC(=O)c2ccccc2C(F)(F)F)cccc1C(=O)Nc1c(Cl)cc(C(F)(C(F)(F)F)C(F)(F)C(F)(F)F)cc1Br (centres unmarked) [B20]
≥ 80%: all assays above

COc1c(NC(=O)c2ccc(C(C)C)cc2)cccc1C(=O)Nc1c(Cl)cc(C(F)(C(F)(F)F)C(F)(F)C(F)(F)F)cc1Br (centres unmarked) [B25]
≥ 80%: all assays above

COc1c(NC(=O)c2cc(Cl)ccc2Cl)cccc1C(=O)Nc1c(Cl)cc(C(F)(C(F)(F)F)C(F)(F)C(F)(F)F)cc1Br (centres unmarked) [B27]
≥ 80%: all assays above

COc1c(NC(=O)c2c(-c3ccccc3)noc2C)cccc1C(=O)Nc1c(Cl)cc(C(F)(C(F)(F)F)C(F)(F)C(F)(F)F)cc1Br (centres unmarked) [B46]
≥ 80%: Thrips tabaci

COc1c(NC(=O)c2ccc(-c3ccccc3)o2)cccc1C(=O)Nc1c(Cl)cc(C(F)(C(F)(F)F)C(F)(F)C(F)(F)F)cc1Br (centres unmarked) [B49]
≥ 80%: Thrips tabaci

COc1c(NC(=O)c2ccc(Br)o2)cccc1C(=O)Nc1c(Cl)cc(C(F)(C(F)(F)F)C(F)(F)C(F)(F)F)cc1Br (centres unmarked) [B52]
≥ 80%: all assays above

COc1c(NC(=O)c2cc(C)oc2C)cccc1C(=O)Nc1c(Cl)cc(C(F)(C(F)(F)F)C(F)(F)C(F)(F)F)cc1Br (centres unmarked) [B58]
≥ 80%: all assays above

COc1c(NC(=O)c2cccc(C)c2[N+](=O)[O-])cccc1C(=O)Nc1c(Cl)cc(C(F)(C(F)(F)F)C(F)(F)C(F)(F)F)cc1Br (centres unmarked) [B87]
≥ 80%: all assays above

COc1c(NC(=O)c2cc(C(F)(F)F)n(C)n2)cccc1C(=O)Nc1c(Cl)cc(C(F)(C(F)(F)F)C(F)(F)C(F)(F)F)cc1Br (centres unmarked) [B92]
≥ 80%: Spodoptera littoralis | Diabrotica balteata | Thrips tabaci

COc1c(NC(=O)c2cc(C(C)(C)C)nn2C)cccc1C(=O)Nc1c(Cl)cc(C(F)(C(F)(F)F)C(F)(F)C(F)(F)F)cc1Br (centres unmarked) [B112]
≥ 80%: all assays above

COc1c(NC(=O)c2ccnc(C(F)(F)F)c2Cl)cccc1C(=O)Nc1c(Cl)cc(C(F)(C(F)(F)F)C(F)(F)C(F)(F)F)cc1Br (centres unmarked) [B115]
≥ 80%: all assays above

COc1cc(C(=O)Nc2cccc(C(=O)Nc3c(Cl)cc(C(F)(C(F)(F)F)C(F)(F)C(F)(F)F)cc3Br)c2OC)cc(Cl)n1 (centres unmarked) [B146]
≥ 80%: all assays above

COc1c(NC(=O)c2ccc([N+](=O)[O-])c(C)c2I)cccc1C(=O)Nc1c(Cl)cc(C(F)(C(F)(F)F)C(F)(F)C(F)(F)F)cc1Br (centres unmarked) [B161]
not listed: Spodoptera littoralis
≥ 80%: all other assays above

COc1c(NC(=O)c2ccc([N+](=O)[O-])c(C)c2Br)cccc1C(=O)Nc1c(Cl)cc(C(F)(C(F)(F)F)C(F)(F)C(F)(F)F)cc1Br (centres unmarked) [B162]
not listed: Spodoptera littoralis
≥ 80%: all other assays above

COc1c(NC(=O)c2ccc([N+](=O)[O-])c(C)c2Cl)cccc1C(=O)Nc1c(Cl)cc(C(F)(C(F)(F)F)C(F)(F)C(F)(F)F)cc1Br (centres unmarked) [B163]
not listed: Spodoptera littoralis
≥ 80%: all other assays above

COc1c(NC(=O)c2ccc(C(F)(F)F)cc2F)cccc1C(=O)Nc1c(Cl)cc(C(F)(C(F)(F)F)C(F)(F)C(F)(F)F)cc1Br (centres unmarked) [B167]
not listed: Plutella xylostella
≥ 80%: all other assays above

COc1c(NC(=O)c2ccc([N+](=O)[O-])c(N(C)C)c2)cccc1C(=O)Nc1c(Cl)cc(C(F)(C(F)(F)F)C(F)(F)C(F)(F)F)cc1Br (centres unmarked) [B175]
not listed: Diabrotica balteata
≥ 80%: all other assays above

COc1c(NC(=O)c2ccccc2F)cccc1C(=O)Nc1c(Cl)cc(C(F)(C(F)(F)F)C(F)(F)C(F)(F)F)cc1Cl (centres unmarked) [C3]
≥ 80%: all assays above

COc1c(NC(=O)c2ccccc2Cl)cccc1C(=O)Nc1c(Cl)cc(C(F)(C(F)(F)F)C(F)(F)F)cc1Cl [E3]
not listed: Plutella xylostella
≥ 80%: all other assays above

COc1c(NC(=O)c2ccc(Cl)c(Cl)c2)cccc1C(=O)Nc1c(C)cc(C(F)(C(F)(F)F)C(F)(F)C(F)(F)F)cc1C (centres unmarked) [F17]
not listed: Thrips tabaci
≥ 80%: all other assays above

COc1c(NC(=O)c2ccc(Cl)cc2)cccc1C(=O)Nc1c(C)cc(C(F)(C(F)(F)F)C(F)(F)C(F)(F)F)cc1C (centres unmarked) [F19]
not listed: Thrips tabaci
≥ 80%: all other assays above

COc1cccc(C(=O)Nc2cccc(C(=O)Nc3c(C)cc(C(F)(C(F)(F)F)C(F)(F)C(F)(F)F)cc3C)c2OC)c1 (centres unmarked) [F22]
not listed: Thrips tabaci
≥ 80%: all other assays above

COc1c(NC(=O)c2ccc([N+](=O)[O-])c(C)c2)cccc1C(=O)Nc1c(C)cc(C(F)(C(F)(F)F)C(F)(F)C(F)(F)F)cc1C (centres unmarked) [F23]
not listed: Thrips tabaci
≥ 80%: all other assays above

COc1c(NC(=O)c2ccc(C(F)(F)F)cc2)cccc1C(=O)Nc1c(C)cc(C(F)(C(F)(F)F)C(F)(F)C(F)(F)F)cc1C (centres unmarked) [F26]
not listed: Thrips tabaci
≥ 80%: all other assays above
